Experimental data published in PubChem BioAssay AID228 (DTP/NCI, 2004).
Where “and” joins values, the source holds several entries; their conditions need not be identical. Equal values may be shown once. Results filed as inconclusive are left out.

Tested on: BDF1 mice, Friend leukemia sc, tumor weight T/C
Assay: NCI In Vivo Anticancer Drug Screen. Data for tumor model Friend Virus Leukemia (Solid) (subcutaneous) in B6D2F1 (BDF1) mice
Conditions: endpoint: mean tumor weight, higher = larger tumour
Protocol: The antitumor activity of compounds was measured in mice bearing transplantable tumors. Survival or tumor size were measured and the results are expressed as the measurement made in the treated group (T) divided by the measurement made in the vehicle treated control group (C). The tumor model used in this assay is Friend Virus Leukemia (Solid) (subcutaneous) in B6D2F1 (BDF1) mice

[1] = dose: 250.0 mg/kg/injection, schedule: Q01DX011 (ip), vehicle: carboxymethylcellulose (CMC)
[2] = dose: 500.0 mg/kg/injection, schedule: Q01DX011 (ip), vehicle: carboxymethylcellulose (CMC)
[3] = dose: 1000.0 mg/kg/injection, schedule: Q01DX011 (ip), vehicle: carboxymethylcellulose (CMC)
[4] = dose: 62.0 mg/kg/injection, schedule: Q01DX011 (ip), vehicle: carboxymethylcellulose (CMC)
[5] = dose: 125.0 mg/kg/injection, schedule: Q01DX011 (ip), vehicle: carboxymethylcellulose (CMC)
[6] = dose: 100.0 mg/kg/injection, schedule: Q01DX011 (ip), vehicle: carboxymethylcellulose (CMC)

## CS(=O)(=O)OCC(=O)NCCNC(=O)COS(C)(=O)=O
dose: 20.0 mg/kg/injection, schedule: Q01DX011 (ip), vehicle: carboxymethylcellulose (CMC)
  T/C: 93 % of control
dose: 31.0 mg/kg/injection, schedule: Q01DX011 (ip), vehicle: saline
  T/C: 110 % of control
dose: 40.0 mg/kg/injection, schedule: Q01DX011 (ip), vehicle: carboxymethylcellulose (CMC)
  T/C: 101 % of control
dose: 62.0 mg/kg/injection, schedule: Q01DX011 (ip), vehicle: saline
  T/C: 108 % of control
dose: 80.0 mg/kg/injection, schedule: Q01DX011 (ip), vehicle: carboxymethylcellulose (CMC)
  T/C: 52 % of control
dose: 125.0 mg/kg/injection, schedule: Q01DX011 (ip), vehicle: saline
  T/C: 89 % of control
dose: 250.0 mg/kg/injection, schedule: Q01DX011 (ip), vehicle: saline
  T/C: 60 % of control

## Nc1nc(SCc2ccccc2)c2ncn(C3CCCC3)c2n1
[1]
  T/C: 69 % of control
[2]
  T/C: 64 % of control
[3]
  T/C: 5 % of control

## O=c1[nH]cc(F)c(=O)[nH]1
dose: 3.0 mg/kg/injection, schedule: Q01DX011 (ip), vehicle: carboxymethylcellulose (CMC)
  T/C: 84 % of control
dose: 3.3 mg/kg/injection, schedule: Q01DX011 (ip), vehicle: carboxymethylcellulose (CMC)
  T/C: 101 % of control
dose: 6.0 mg/kg/injection, schedule: Q01DX011 (ip), vehicle: carboxymethylcellulose (CMC)
  T/C: 66 % of control and 44 % of control
dose: 6.7 mg/kg/injection, schedule: Q01DX011 (ip), vehicle: carboxymethylcellulose (CMC)
  T/C: 83 % of control
dose: 13.5 mg/kg/injection, schedule: Q01DX011 (ip), vehicle: carboxymethylcellulose (CMC)
  T/C: 69 % of control and 71 % of control
dose: 18.0 mg/kg/injection, schedule: Q01DX011 (ip), vehicle: carboxymethylcellulose (CMC)
  T/C: 93 % of control
dose: 27.0 mg/kg/injection, schedule: Q01DX011 (ip), vehicle: carboxymethylcellulose (CMC)
  T/C: 22 % of control and 28 % of control

## O=[N+]([O-])c1ccccc1CSc1ncnc2nc[nH]c12
dose: 15.0 mg/kg/injection, schedule: Q01DX011 (ip), vehicle: carboxymethylcellulose (CMC)
  T/C: 112 % of control
dose: 31.0 mg/kg/injection, schedule: Q01DX011 (ip), vehicle: carboxymethylcellulose (CMC)
  T/C: 111 % of control
[4]
  T/C: 55 % of control and 48 % of control
[5]
  T/C: 26 % of control and 48 % of control
[1]
  T/C: 7 % of control
[2]
  T/C: 2 % of control

## O=CCC(O)C(O)C(O)CO (centres undefined)
[5]
  T/C: 89 % of control
[1]
  T/C: 83 % of control
[2]
  T/C: 48 % of control
[3]
  T/C: 63 % of control

## OCC1OC(n2cnc3c(Cl)ncnc32)C(O)C1O (centres undefined)
[4]
  T/C: 93 % of control
[5]
  T/C: 105 % of control
[1]
  T/C: 109 % of control
[2]
  T/C: 115 % of control

## Nc1ccccc1N
dose: 25.0 mg/kg/injection, schedule: Q01DX011 (ip), vehicle: carboxymethylcellulose (CMC)
  T/C: 84 % of control
[6]
  T/C: 11 % of control and 13 % of control and 18 % of control
dose: 150.0 mg/kg/injection, schedule: Q01DX011 (ip), vehicle: carboxymethylcellulose (CMC)
  T/C: 10 % of control

## CC/C(=C(\CC)c1ccc(OC)cc1)c1ccc(O)cc1
dose: 3.0 mg/kg/injection, schedule: Q01DX011 (sc), vehicle: steriod suspending solution
  T/C: 69 % of control
dose: 7.0 mg/kg/injection, schedule: Q01DX011 (sc), vehicle: steriod suspending solution
  T/C: 101 % of control
dose: 15.0 mg/kg/injection, schedule: Q01DX011 (sc), vehicle: steriod suspending solution
  T/C: 79 % of control
dose: 30.0 mg/kg/injection, schedule: Q01DX011 (sc), vehicle: steriod suspending solution
  T/C: 55 % of control
dose: 240.0 mg/kg/injection, schedule: Q01DX011 (sc), vehicle: steriod suspending solution
  T/C: 65 % of control
dose: 480.0 mg/kg/injection, schedule: Q01DX011 (sc), vehicle: steriod suspending solution
  T/C: 63 % of control
dose: 960.0 mg/kg/injection, schedule: Q01DX011 (sc), vehicle: steriod suspending solution
  T/C: 62 % of control
dose: 1920.0 mg/kg/injection, schedule: Q01DX011 (sc), vehicle: steriod suspending solution
  T/C: 63 % of control

## Nc1ncnc2c1ncn2C1CCCO1 (centres undefined)
dose: 50.0 mg/kg/injection, schedule: Q01DX011 (ip), vehicle: carboxymethylcellulose (CMC)
  T/C: 111 % of control
[6]
  T/C: 54 % of control
